Results: patent publication US11384060B2, “Amide compounds and use thereof” (ALPHALA CO., LTD., priority 2017, dated 2022)

How the values were obtained:
glucagon receptor (GCGR) = target: T1, glucagon receptor (GCGR) (Homo sapiens, UniProt P47871); assay: I125-glucagon binding assay (competition, GCGR membrane fractions); conditions: competition with I125-glucagon 0.0625 nM, membrane fractions of GCGR overexpressed CHO-K1 cells
T1 construct: expressed in transfected cells; host or cells: CHO-K1 cells overexpressing GCGR (membrane fractions)
T1 sequence (P47871 26-477): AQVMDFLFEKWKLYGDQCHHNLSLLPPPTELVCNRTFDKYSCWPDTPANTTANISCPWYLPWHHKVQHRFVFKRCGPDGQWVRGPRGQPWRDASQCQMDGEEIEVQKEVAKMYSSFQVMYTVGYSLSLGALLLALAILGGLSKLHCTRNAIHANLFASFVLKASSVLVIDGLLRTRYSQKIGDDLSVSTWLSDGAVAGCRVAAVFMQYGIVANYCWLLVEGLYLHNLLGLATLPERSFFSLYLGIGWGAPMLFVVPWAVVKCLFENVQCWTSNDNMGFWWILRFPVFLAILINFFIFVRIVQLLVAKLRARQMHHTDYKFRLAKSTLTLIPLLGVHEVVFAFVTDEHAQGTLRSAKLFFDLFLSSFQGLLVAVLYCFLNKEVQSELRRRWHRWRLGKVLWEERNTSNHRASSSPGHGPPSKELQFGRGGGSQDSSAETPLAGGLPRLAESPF
Method in brief: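 Membranes from CHO-K1 cells overexpressing GCGR, 7.5 μg/well in 50 mM Tris pH 7.4 with 0.5% BSA, were preincubated 5 min with serially diluted compounds, then given 0.0625 nM final I^125-glucagon for 30 min at 25° C. Bound label was filtered on PEI-coated GF/B and counted; IC50 by non-linear regression.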

[1] = target: T2, glucagon receptor (GCGR) overexpressed CHO-K1 cells or human primary hepatocytes (Homo sapiens, UniProt P47871); assay: Glucagon cAMP inhibition assay (Cisbio cAMP Dynamic 2 HTRF); format: cell-based; conditions: inhibition of glucagon (EC50 concentration) induced cAMP production
T2 construct: expressed in transfected cells; host or cells: GCGR overexpressed CHO-K1 cells or human primary hepatocytes (endogenous receptor)
T2 sequence (P47871 26-477): as above
Method in brief: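 GCGR-overexpressing CHO-K1 cells or human primary hepatocytes in HBSS with 0.1% BSA and 800 nM IBMX, pre-incubated 30 min with serially diluted compounds (1% DMSO final), then stimulated 30 min at room temperature with glucagon at its EC50. cAMP measured by HTRF after 60 min lysis; IC50 by non-linear regression.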

IC50 (glucagon receptor (GCGR)) | IC50 cAMP [1] | SMILES
158 nM | 153.5 nM | CCCC[C@@H](COc1ccc(-c2ccc(C(F)(F)F)cc2)c(F)c1)Nc1ccc(C(=O)NCCC(=O)O)cc1 [Compound 8-18, (S)-3-(4-((1-((2-fluoro-4′-(trifluoromethyl)-[1,1′-biphenyl]-4-yl)oxy)hexan-2-yl)amino)benzamido)propanoic Acid]
101 nM | 182 nM | CC(C)C[C@@H](COc1ccc(-c2ccc(Cl)cc2Cl)c(F)c1)Nc1ccc(C(=O)NCCC(=O)O)cc1 [Compound 8-19, (S)-3-(4-((1-((2′,4′-dichloro-2-fluoro-[1,1′-biphenyl]-4-yl)oxy)-4-methylpentan-2-yl)amino)benzamido)propanoic Acid]
83 nM | 234 nM | CC(C)C[C@@H](COc1ccc(-c2cc3ccccc3o2)c(F)c1)Nc1ccc(C(=O)NCCC(=O)O)cc1 [Compound 8-20, (S)-3-(4-((1-(4-(benzofuran-2-yl)-3-fluorophenoxy)-4-methylpentan-2-yl)amino)benzamido)propanoic Acid]
111 nM | 181 nM | CC(C)(C)[C@@H](COc1ccc(-c2cc3ccccc3o2)c(F)c1)Nc1ccc(C(=O)NCCC(=O)O)cc1 [Compound 8-21, (S)-3-(4-((1-(4-(benzofuran-2-yl)-3-fluorophenoxy)-3,3-dimethylbutan-2-yl)amino)benzamido)propanoic Acid]
68 nM | 166.9 nM | CC(C)(C)[C@@H](COc1ccc(-c2ccc(Cl)cc2Cl)c(F)c1)Nc1ccc(C(=O)NCCC(=O)O)cc1 [Compound 8-22, (S)-3-(4-((1-((2′,4′-dichloro-2-fluoro-[1,1′-biphenyl]-4-yl)oxy)-3,3-dimethylbutan-2-yl)amino)benzamido)propanoic Acid]
81 nM | 89.46 nM | CC(C)(C)[C@@H](COc1ccc(-c2ccc(C(F)(F)F)cc2F)c(F)c1)Nc1ccc(C(=O)NCCC(=O)O)cc1 [Compound 8-23, (S)-3-(4-((1-((2,2′-difluoro-4′-(trifluoromethyl)-[1,1′-biphenyl]-4-yl)oxy)-3,3-dimethylbutan-2-yl)amino)benzamido)propanoic Acid]
366 nM | 2701 nM | CCCC[C@@H](COc1ccc(-c2nnc(C(F)(F)F)o2)c(F)c1)Nc1ccc(C(=O)NCCC(=O)O)cc1 [Compound 8-24, (S)-3-(4-((1-(3-fluoro-4-(5-(trifluoromethyl)-1,3,4-oxadiazol-2-yl)phenoxy)hexan-2-yl)amino)benzamido)propanoic Acid]
95 nM | 653 nM | CC(C)[C@@H](COc1ccc(-c2nc3ccccc3s2)c(F)c1)Nc1ccc(C(=O)NCCC(=O)O)cc1 [Compound 8-25, (S)-3-(4-((1-(4-(benzo[d]thiazol-2-yl)-3-fluorophenoxy)-3-methylbutan-2-yl)amino)benzamido)propanoic Acid]
125 nM | 386.1 nM | CC(C)[C@@H](COc1ccc(-c2cc3ccccc3o2)cc1)Nc1cnc(C(=O)NCCC(=O)O)cn1 [Compound 9-1, (S)-3-(5-((1-(4-(benzofuran-2-yl)phenoxy)-3-methylbutan-2-yl)amino)pyrazino-2-carboxamido)propanoic Acid]
363 nM | 427 nM | CC[C@H](C)[C@@H](COc1ccc(-c2ccc(Cl)cc2Cl)cc1)Nc1cnc(C(=O)NCCC(=O)O)cn1 [Compound 9-2, 3-(5-(((2S,3 S)-1-((2′,4′-dichloro-[1,1′-biphenyl]-4-yl)oxy)-3-methylpentan-2-yl)amino)pyrazine-2-carboxamido)propanoic Acid]
120 nM | 487 nM | CC(C)[C@@H](COc1ccc(-c2ccc(C(F)(F)F)cc2)cc1)Nc1ccc(C(=O)NCCC(=O)O)nc1 [Compound 9-3, (S)-3-(5-((3-methyl-1-((4′-(trifluoromethyl)-[1,1′-biphenyl]-4-yl)oxy)butan-2-yl)amino)picolinamido)propanoic Acid]
1670 nM | 2300 nM | CC(C)C[C@@H](COc1cc(F)c(-c2ccc(C(F)(F)F)cc2)c(F)c1)Nc1ccc(C(=O)NCCC(=O)O)cn1 [Compound 9-4, (S)-3-(6-((1-((2,6-difluoro-4′-(trifluoromethyl)-[1,1′-biphenyl]-4-yl)oxy)-4-methylpentan-2-yl)amino)nicotinamido)propanoic Acid]
606 nM | 2408 nM | CC(C)[C@@H](COc1ccc(-c2nc3ccccc3s2)c(F)c1)Nc1ccc(C(=O)NCCC(=O)O)cn1 [Compound 9-5, (S)-3-(6-((1-(4-(benzo[d]thiazol-2-yl)-3-fluorophenoxy)-3-methylbutan-2-yl)amino)nicotinamido)propanoic Acid]
3650 nM | 5577 nM | CC(C)C[C@@H](COc1cnn(-c2ccc(F)cc2F)c1)Nc1ccc(C(=O)NCCC(=O)O)cc1 [Compound 9-6, (S)-3-(4-((1-((1-(2,4-difluorophenyl)-1H-pyrazol-4-yl)oxy)-4-methylpentan-2-yl)amino)benzamido)propanoic Acid]
531 nM | 1959 nM | CC(C)[C@@H](COc1ccc(-c2ccc(C(F)(F)F)cc2)nc1)Nc1ccc(C(=O)NCCC(=O)O)cc1 [Compound 10-1, (S)-3-(4-((3-methyl-1-((6-(4-(trifluoromethyl)phenyl)pyridin-3-yl)oxy)butan-2-yl)amino)benzamido)propanoic Acid]
255 nM | 1805 nM | CC(C)[C@@H](COc1ccc(-c2ccc(C(F)(F)F)cc2Cl)nc1)Nc1ccc(C(=O)NCCC(=O)O)cc1 [Compound 10-2]
511 nM | 1206 nM | CC(C)[C@@H](COc1ccc(-c2ccc(C(F)(F)F)cc2F)nc1)Nc1ccc(C(=O)NCCC(=O)O)cc1 [Compound 10-3, (S)-3-(4-((1-((6-(2-fluoro-4-(trifluoromethyl)phenyl)pyridin-3-yl)oxy)-3-methylbutan-2-yl)amino)benzamido)propanoic Acid]
445 nM | 4036 nM | CC(C)[C@@H](COc1ccc(-c2ccc(Cl)cc2Cl)nc1)Nc1ccc(C(=O)NCCC(=O)O)cc1 [Compound 10-4, (S)-3-(4-((1-((6-(2,4-dichlorophenyl)pyridin-3-yl)oxy)-3-methylbutan-2-yl)amino)benzamido)propanoic Acid]
441 nM | 3690 nM | CC(C)[C@@H](COc1ccc(-c2cc(Cl)cc(Cl)c2)nc1)Nc1ccc(C(=O)NCCC(=O)O)cc1 [Compound 10-5, (S)-3-(4-((1-((6-(3,5-dichlorophenyl)pyridin-3-yl)oxy)-3-methylbutan-2-yl)amino)benzamido)propenoic Acid]
252 nM | 2650 nM | CC(C)[C@@H](COc1ccc(-c2cc3ccccc3o2)nc1)Nc1ccc(C(=O)NCCC(=O)O)cc1 [Compound 10-6, (S)-3-(4-((1-((6-(benzofuran-2-yl)pyridin-3-yl)oxy)-3-methylbutan-2-yl)amino)benzamido)propanoic Acid]
319 nM | 732 nM | CCCC[C@@H](COc1ccc(-c2ccc(Cl)cc2Cl)nc1)Nc1ccc(C(=O)NCCC(=O)O)cc1 [Compound 10-7, (S)-3-(4-((1-((6-(2,4-dichlorophenyl)pyridin-3-yl)oxy)hexan-2-yl)amino)benzamido)propanoic Acid]
